Experimental data taken from patent US10927139B2, “Chemically cleavable group” (Tagworks Pharmaceuticals B.V., priority 2012, dated 2021).

Columns and labels:
[1] = Tetrazine-induced doxorubicin release from Axial-TCO-1-Doxorubicin in PBS/MeCN (LCMS); conditions: 10 equiv. tetrazine; 25% MeCN in PBS; 37° C.; LCMS at 4 h (n = 3)
Protocol: PBS/MeCN (1 mL, 3/1), preheated at 37° C. and TCO-2-doxorubicin (10 μL of a 2.5 mM solution in DMSO, 1 eq.) were added to a preheated injection vial. Tetrazine (10 μL of a 25 mM solution in DMSO, 10 eq.) was added and the vial was vortexed. After incubation for 1 hour at 37° C., the vial was placed in LC-MS autosampler at 10° C. LC-MS analysis was performed using a 5% to 100% H2O/MeCN gradient over 11 minutes with a C18 reverse-phase column at 35° C. A control sample containing only TCO-2-doxorubicin (1 eq), as well as a sample containing only doxorubicin (1 eq.), was analyzed under the same conditions. All tetrazine containing samples were measured twice and the doxorubicin control sample was run after every three other samples during an overnight program. […] The calculated percentage of release was corrected when it was observed that the TCO-2-doxorubicin was not fully converted to inv-DA adduct(s). This was done by quantification of remaining dox-TCO, but full conversion was almost always observed. Peak areas (used for doxorubin quantification) were determined at λ=470-500 nm where characteristic doxorubicin absorption takes place and peak integration was done by hand.
(§1) In a similar fashion as Example 3, the release of doxorubicin from TCO-1-doxorubucin as induced by tetrazines 1, 8, 9 in PBS/ACN and in serum was measured.

[2] = Tetrazine-induced release of bead-bound radioactivity from streptavidin beads loaded with 125I-Rtx-TCO-biotin; conditions: beads with 21 μg ^125I-Rtx-TCO-biotin/mg; 1.5×10^3 eqs tetrazine; 1 hour at room temperature; gamma counting
Protocol: The bead suspension containing 21 μg ^125I-Rtx-TCO-biotin/mg beads (1 mL in PBS) was divided in two aliquots and reacted with a large excess of 3,6-dimethyl-1,2,4,5-tetrazine (8, 1.5×10^3 eqs with respect to Rtx) in DMSO (5 μL) or with DMSO alone (control) and incubated for 1 hour at room temperature on a roller bench. […] SDS-PAGE confirmed that the activity in the supernatant was due to the release of ^125I-Rtx from the beads (FIG. 4), thus confirming cleavage of the Rtx-TCO-biotin linker upon reaction with the 3,6-dimethyl-1,2,4,5-tetrazine.

[3] = Tetrazine-induced doxorubicin release from Axial-TCO-1-Doxorubicin in serum; set-up: species or system mouse; conditions: 10 equiv. tetrazine; 50% serum; 37° C.; LCMS at 4 h (n = 3)
Protocol: as §1
Serum experiments were conducted as follows:
TCO-1-doxorubucin (6.25×10^−8 mol) was dissolved in DMSO (0.050 mL), and PBS (0.475 mL) was added slowly in aliquots of 0.010 mL, followed by mouse serum (0.475 mL). A portion of this mixture (0.200 mL) was equilibrated at 37° C., and a solution of tetrazine (1.25×10^−7 mol) in DMSO (0.005 mL) was added, and the solution was thoroughly mixed and incubated at 37° C. in the dark for 4 h. Subsequently, cold MeCN (0.200 mL) was added, followed by centrifugation at 13400 rpm for 5 min. The supernatant was used for further analysis by HPLCMS/PDA analysis to determine the release of doxorubicin.

Cc1nnc(C)nn1 [tetrazine 8, 3,6-dimethyl-1,2,4,5-tetrazine]
Doxorubicin release (%) from Axial-TCO-1-Doxorubicin, PBS/MeCN (3/1) [1]: 79 ± 3% | release of the bead-bound radioactivity [2]: 37% | Doxorubicin release (%) from Axial-TCO-1-Doxorubicin, Serum [3]: 75 ± 4%
